Results reported in article PMC5298231, “The Malaria Parasite's Lactate Transporter PfFNT Is the Target of Antiplasmodial Compounds Identified in Whole Cell Phenotypic Screens” (PLoS Pathogens, 2017).

System: erythrocytes infected with 3D7 trophozoites
Assay type: cell-based, Plasmodium falciparum
Settings: sheet Ratio; for Ratio of metabolite abundance, Exp1_1hr: Exp1, 1hr; for Ratio of metabolite abundance, Exp1_3hr: Exp1, 3hr; for Ratio of metabolite abundance, Exp1_6hr: Exp1, 6hr; for Ratio of metabolite abundance, Exp2_1hr: Exp2, 1hr; for Ratio of metabolite abundance, Exp2_3hr: Exp2, 3hr; for Ratio of metabolite abundance, Exp2_6hr: Exp2, 6hr; for Ratio of metabolite abundance, Exp3_1hr: Exp3, 1hr; for Ratio of metabolite abundance, Exp3_3hr: Exp3, 3hr; for Ratio of metabolite abundance, Exp3_6hr: Exp3, 6hr

| SMILES | Ratio of metabolite abundance, Exp1_1hr | Ratio of metabolite abundance, Exp1_3hr | Ratio of metabolite abundance, Exp1_6hr | Ratio of metabolite abundance, Exp2_1hr | Ratio of metabolite abundance, Exp2_3hr | Ratio of metabolite abundance, Exp2_6hr | Ratio of metabolite abundance, Exp3_1hr | Ratio of metabolite abundance, Exp3_3hr | Ratio of metabolite abundance, Exp3_6hr |
| --- | --- | --- | --- | --- | --- | --- | --- | --- | --- |
| O=P(O)(O)OC[C@H]1OC(O)(CO)[C@@H](O)[C@@H]1O (stereo partly drawn) [Fructose-6-Phosphate] | 1.008 | 1.026 | 1.013 | 1.111 | 1.041 | 0.9386 | 1.073 | 1.052 | 0.8397 |
| Nc1nc2c(ncn2[C@@H]2O[C@H](COP(=O)(O)OP(=O)(O)O[C@H]3O[C@H](CO)[C@@H](O)[C@H](O)[C@@H]3O)[C@@H](O)[C@H]2O)c(=O)[nH]1 [GDP-mannose] | 1.172 | 0.7132 | 0.4189 | 0.9396 | 0.7145 | 0.4773 | 0.9382 | 0.7837 | 0.5338 |
| Nc1nc2c(ncn2[C@@H]2O[C@H](COP(=O)(O)OP(=O)(O)O)[C@@H](O)[C@H]2O)c(=O)[nH]1 [GDP] | 0.4319 | 0.3131 | 0.5082 | 0.6304 | 0.5095 | 0.5364 | 0.8846 | 0.5153 | 0.569 |
| Nc1nc2c(ncn2[C@@H]2O[C@H](COP(=O)(O)O)[C@@H](O)[C@H]2O)c(=O)[nH]1 [GMP] | 0.2584 | 0.2388 | 0.4652 | 0.6356 | 0.2451 | 0.4274 | 0.5874 | 0.5355 | 0.8077 |
| Nc1nc2c(ncn2[C@@H]2O[C@H](COP(=O)(O)OP(=O)(O)OP(=O)(O)O)[C@@H](O)[C@H]2O)c(=O)[nH]1 [GTP] | 0.6647 | 0.5629 | 0.5991 | 0.6384 | 0.6479 | 0.6462 | 0.7156 | 0.6328 | 0.6081 |
| O=P(O)(O)OC[C@H]1OC(O)[C@H](O)[C@@H](O)[C@@H]1O (stereo partly drawn) [Glucose-6-Phosphate] | 0.8219 | 0.7353 | 0.7494 | 0.9729 | 0.8323 | 0.7319 | 0.8489 | 0.791 | 0.6337 |
